Laboratory results as given in the supplement of paper PMC10307832.

Columns and labels:
Assay in all cases: relative viability (nuclei count vs DMSO), 5 days (fraction); higher = more cells survive
[1] = compound: CCN1CCN(c2ccc(Nc3cc(N(C)C(=O)Nc4c(Cl)c(OC)cc(OC)c4Cl)ncn3)cc2)CC1 [BGJ398] + CCNC(=O)c1noc(-c2cc(C(C)C)c(O)cc2O)c1-c1ccc(CN2CCOCC2)cc1 [Luminespib] (partner 0.01 µM)
Method in brief: (§1)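 Cells from lung cancer lines were seeded into 1536-well plates and, one day later, dosed by pin tool. Treatments were either a single drug or a fixed dose of an anchor drug with five library-drug doses (not always all listed) in √10 steps. After 5 days, nuclei were stained in a one-step fixation (final 0.05% Triton X-100, 1% formaldehyde, 1 ug/ml Hoechst) and counted on 4× images, and relative viability is the treated-to-vehicle nuclei ratio, as the median of duplicate plates.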

[2] = compound: CCN1CCN(c2ccc(Nc3cc(N(C)C(=O)Nc4c(Cl)c(OC)cc(OC)c4Cl)ncn3)cc2)CC1 [BGJ398] + Cc1nc(NC(=O)N2CCC[C@H]2C(N)=O)sc1-c1ccnc(C(C)(C)C(F)(F)F)c1 [Alpelisib] (partner 2 µM)
Method in brief: as §1

[3] = compound: C1=CC2=NC=CN=C2C=C1/C=C/3\C(=O)NC(=O)S3 + N=C(N)NC(=N)NCCc1ccccc1 [Phenformin] (partner 250 µM)
Method in brief: as §1

[4] = compound: C1=CC2=NC=CN=C2C=C1/C=C/3\C(=O)NC(=O)S3 + CC1(C)CCC(c2ccc(Cl)cc2)=C(CN2CCN(c3ccc(C(=O)NS(=O)(=O)c4ccc(N[C@H](CCN5CCOCC5)CSc5ccccc5)c(S(=O)(=O)C(F)(F)F)c4)cc3)CC2)C1 [Navitoclax] (partner 0.5 µM)
Method in brief: as §1

Cell Line | relative viability ([1]; first compound 0.01 µM) | relative viability ([1]; first compound 0.03162 µM) | relative viability ([1]; first compound 0.1 µM) | relative viability ([1]; first compound 0.3162 µM) | relative viability ([1]; first compound 1 µM) | relative viability ([2]; first compound 0.01 µM) | relative viability ([2]; first compound 0.03162 µM) | relative viability ([2]; first compound 0.1 µM) | relative viability ([2]; first compound 0.3162 µM) | relative viability ([2]; first compound 1 µM) | relative viability ([3]; first compound 0.02 µM) | relative viability ([3]; first compound 0.06325 µM) | relative viability ([3]; first compound 0.2 µM) | relative viability ([3]; first compound 0.6325 µM) | relative viability ([3]; first compound 2 µM) | relative viability ([4]; first compound 0.02 µM) | relative viability ([4]; first compound 0.06325 µM) | relative viability ([4]; first compound 0.2 µM) | relative viability ([4]; first compound 0.6325 µM) | relative viability ([4]; first compound 2 µM)
201T | 1.24 | 0.976 | 1.07 | 1.04 | 0.979 | 1.08 | 1.01 | 0.893 | 0.964 | 0.994 | 0.448 | 0.49 | 0.452 | 0.495 | 0.323 | 1.18 | 1.26 | 1.19 | 1.21 | 1.18
A549 |  |  |  |  |  | 0.782 | 0.864 | 0.847 | 0.635 | 0.872 | 0.175 | 0.137 | 0.156 | 0.2 | 0.152 | 1.24 | 1.43 | 1.22 | 1.02 | 1.11
A-427 | 0.903 | 0.907 | 1 | 0.794 | 0.81 | 1.08 | 1.07 | 0.944 | 0.848 | 0.662 | 0.291 | 0.247 | 0.374 | 0.332 | 0.261 | 0.935 | 0.977 | 0.993 | 0.934 | 0.877
ABC-1 | 0.795 | 0.782 | 0.507 | 0.912 | 0.876 | 0.96 | 1.04 | 1.03 | 1.15 | 0.836 | 0.265 | 0.316 | 0.215 | 0.231 | 0.259 |  |  |  |  | 
BEN | 0.376 | 0.402 | 0.33 | 0.376 | 0.597 | 0.896 | 1.2 | 0.993 | 0.923 | 0.759 | 0.253 | 0.3 | 0.247 | 0.275 | 0.272 | 0.0591 | 0.0567 | 0.065 | 0.0608 | 0.0653
CAL-12T | 0.257 | 0.391 | 0.326 | 0.4 | 0.232 | 1.11 | 1.37 | 1.25 | 1.36 | 1.47 | 0.577 | 0.479 | 0.562 | 0.517 | 0.546 | 1.3 | 1.13 | 1.09 | 1.24 | 1.49
COR-L23 | 0.745 | 0.731 | 0.598 | 0.799 | 0.789 | 0.755 | 0.872 | 0.686 | 0.843 | 0.824 | 0.459 | 0.455 | 0.46 | 0.43 | 0.425 | 0.919 | 1.08 | 1.03 | 0.946 | 0.962
COR-L 105 | 0.69 | 0.972 | 0.832 | 0.93 | 0.801 | 0.919 | 0.956 | 0.979 | 1.05 | 1.06 | 0.46 | 0.43 | 0.494 | 0.5 | 0.413 | 0.697 | 0.703 | 0.821 | 0.678 | 0.999
Calu-6 |  |  |  |  |  | 0.861 | 1.01 | 0.984 | 0.999 | 0.944 |  |  |  |  |  | 0.848 | 0.895 | 0.782 | 0.853 | 0.87
ChaGo-K-1 | 0.595 | 0.673 | 0.724 | 0.577 | 0.651 |  |  |  |  |  | 0.45 | 0.466 | 0.516 | 0.35 | 0.369 | 1.06 | 1.67 | 1.28 | 0.924 | 0.726
EBC-1 |  |  |  |  |  | 0.806 | 0.85 | 0.917 | 0.812 | 0.884 |  |  |  |  |  | 0.43 | 0.437 | 0.545 | 0.38 | 0.51
EKVX | 0.783 | 0.859 | 0.999 | 0.782 | 0.966 | 0.798 | 0.665 | 0.95 | 0.842 | 0.977 | 0.216 | 0.22 | 0.239 | 0.223 | 0.225 | 0.931 | 0.865 | 0.916 | 0.957 | 0.822
EMC-BAC-2 | 1.14 | 1.25 | 1.22 | 1.16 | 1.09 | 0.727 | 0.77 | 0.786 | 0.787 | 0.738 | 0.499 | 0.532 | 0.55 | 0.518 | 0.396 | 1.11 | 1.03 | 1.15 | 1.12 | 1.25
EPLC-272H | 0.29 | 0.235 | 0.21 | 0.716 | 0.451 | 0.895 | 0.812 | 0.846 | 0.752 | 0.952 | 0.259 | 0.302 | 0.371 | 0.26 | 0.297 | 1.08 | 1.03 | 1.41 | 1.01 | 1.1
H3255 | 0.888 |  | 1.02 | 0.625 | 0.422 | 0.676 |  | 0.747 | 0.37 | 0.792 | 0.368 | 0.348 | 0.358 | 0.358 | 0.3 | 0.533 | 0.421 | 0.581 | 0.449 | 0.498
HARA | 0.652 | 0.862 | 0.682 | 0.374 | 0.679 | 0.784 | 0.635 | 0.752 | 0.817 | 0.787 | 0.451 | 0.384 | 0.395 | 0.428 | 0.422 | 1.1 | 1.11 | 1.17 | 1.16 | 1.09
HCC-15 | 0.316 | 0.258 | 0.294 | 0.37 | 0.397 | 0.88 | 0.909 | 0.976 | 0.91 | 1.02 | 0.497 | 0.471 | 0.488 | 0.457 | 0.336 | 0.662 | 0.655 | 0.746 | 0.679 | 0.682
HCC-44 | 0.974 | 1.11 | 1.32 | 1.09 | 0.942 | 0.8 | 0.761 | 0.763 | 0.856 | 0.815 | 0.314 | 0.212 | 0.202 | 0.153 | 0.122 | 0.969 | 1.02 | 0.946 | 1.02 | 0.892
